Where a SMILES comes first, the peptide text is derived from it. [ ]: non-standard residue; d: D form. The star is where a group is joined. Stearoyl = CCCCCCCCCCCCCCCCCC(=O)*
Assay: Enzymatic hydrolysis stability
Format: in vitro ADME
Conditions: Tritirachium album (Parengyodontium album), peptide 8.0 mg/mL and proteinase K 2.0 mg/mL in PBS mixed 0.5 mL + 0.5 mL, 37 °C, HPLC peak area, mean n = 3
Protocol: Peptides and proteinase K were dissolved in PBS and then diluted to 8.0 mg mL^−1 and 2.0 mg mL^−1, respectively. For each peptide tested, 0.5 mL of peptide solution was mixed with 0.5 mL proteinase K solution and then incubated in a water bath at 37 °C. After 0, 5, 15, 30, 60, and 120 min, a 10 µL sample of the mixture was withdrawn and 30 µL of a precipitator solution (1.0 mL of TFA in 9.0 mL acetonitrile) was added. Each sample was subsequently vortexed for 5 s and centrifuged for 10 min at 4 °C. Supernatants were analyzed by HPLC, with the peak area of each peptide recorded and used to calculate hydrolysis efficiency.

CCCCCCCCCCCCCCCCCC(=O)N[C@@H](CS)C(=O)N[C@@H](CC(C)C)C(=O)N[C@@H](CC(C)C)C(=O)N[C@@H](CCCCN)C(=O)N[C@@H](CCCCN)C(=O)N[C@@H](CC(C)C)C(=O)N[C@@H](CC(C)C)C(=O)N[C@@H](CCCCN)C(=O)N[C@@H](CCCCN)C(=O)N[C@@H](CC(C)C)C(=O)N[C@@H](CC(C)C)C(=O)N[C@@H](CCCCN)C(=O)N[C@@H](CCCCN)C(=O)N[C@@H](CS)C(=O)N[C@@H](Cc1c[nH]cn1)C(=O)N[C@@H](Cc1c[nH]cn1)C(=O)N[C@@H](Cc1c[nH]cn1)C(=O)N[C@@H](Cc1c[nH]cn1)C(=O)N[C@@H](Cc1c[nH]cn1)C(=O)N[C@@H](Cc1c[nH]cn1)C(=O)N[C@@H](CCCNC(=N)N)C(=O)N[C@@H](CCCNC(=N)N)C(=O)N[C@@H](CCCNC(=N)N)C(=O)N[C@@H](CCCNC(=N)N)C(=O)N[C@@H](CCCNC(=N)N)C(=O)N[C@@H](CCCNC(=N)N)C(=O)N[C@@H](CCCNC(=N)N)C(=O)N[C@@H](CCCNC(=N)N)C(=O)N[C@@H](CCCNC(=N)N)C(N)=O [P-03] (Stearoyl-CLLKKLLKKLLKKCHHHHHHRRRRRRRRR-NH2)
metabolised at 1 h, 4 mg/mL (within 60 min, read-out: peptide degraded by proteinase K): 82%

CCCCCCCCCCCCCCCCCC(=O)N[C@H](CS)C(=O)N[C@H](CC(C)C)C(=O)N[C@H](CC(C)C)C(=O)N[C@H](CCCCN)C(=O)N[C@H](CCCCN)C(=O)N[C@H](CC(C)C)C(=O)N[C@H](CC(C)C)C(=O)N[C@H](CCCCN)C(=O)N[C@H](CCCCN)C(=O)N[C@H](CC(C)C)C(=O)N[C@H](CC(C)C)C(=O)N[C@H](CCCCN)C(=O)N[C@H](CCCCN)C(=O)N[C@H](CS)C(=O)N[C@H](Cc1c[nH]cn1)C(=O)N[C@H](Cc1c[nH]cn1)C(=O)N[C@H](Cc1c[nH]cn1)C(=O)N[C@H](Cc1c[nH]cn1)C(=O)N[C@H](Cc1c[nH]cn1)C(=O)N[C@H](Cc1c[nH]cn1)C(=O)N[C@H](CCCNC(=N)N)C(=O)N[C@H](CCCNC(=N)N)C(=O)N[C@H](CCCNC(=N)N)C(=O)N[C@H](CCCNC(=N)N)C(=O)N[C@H](CCCNC(=N)N)C(=O)N[C@H](CCCNC(=N)N)C(=O)N[C@H](CCCNC(=N)N)C(=O)N[C@H](CCCNC(=N)N)C(=O)N[C@H](CCCNC(=N)N)C(N)=O [P-04] (Stearoyl-[dC][dL][dL][dK][dK][dL][dL][dK][dK][dL][dL][dK][dK][dC][dH][dH][dH][dH][dH][dH][dR][dR][dR][dR][dR][dR][dR][dR][dR]-NH2)
remaining at 1 h, 4 mg/mL (60 min, read-out: peptide remaining after incubation with proteinase K): 70%
